Patent US8263083B2, “Combination therapy with antibody-drug conjugates” (priority 2007, dated 2012)
Like-named read-outs stand apart in the source and are kept apart here.

Columns and labels:
L540cy HL tumors = test: Antitumor activity on subcutaneous L540cy HL tumors in SCID mice; format: in vivo; settings: for Median TGD (FIG. 6) (days to triple): Vinblastine q4dx3
Description: (§1) SCID mice were implanted with L540cy HL cells in the right flank.
as §1
(§2) SCID mice were implanted with L540cy HL cells in the right flank. Groups of mice (5-10/group) were untreated or received cAC10-vcMMAE (1 mg/kg, q4dx3, ip) alone, Gemcitabine (120 mg/kg, q4dx3, ip) alone, or combination treatment with cAC10-vcMMAE and Gemcitabine when tumor sizes averaged approximately 100 mm^3.
as §2, with “and Gemcitabine,” for “and Gemcitabine”, “approximately 300” for “approximately 100”
as §1, §1
(§3) SCID mice were implanted with L540cy HL cells in the right flank. Groups of mice (5-10/group) were untreated or received cAC10-vcMMAE (1 mg/kg, q4dx3, ip) alone, Vinorelbine alone (4 mg/kg q5dx3), or combination treatment cAC10-vcMMAE and vinorelbine when tumor sizes averaged approximately 100 mm^3.
as §3
as §3, with “Doxorubicin” for “Vinorelbine”, “(3” for “(4”, “q4dx3),” for “q5dx3),”, “treatment with” for “treatment”, “doxorubicin” for “vinorelbine”
as §3, with “Doxorubicin” for “Vinorelbine”, “(1.5” for “(4”, “q4dx3),” for “q5dx3),”, “treatment with” for “treatment”, “doxorubicin” for “vinorelbine”
SCID mice were implanted with L540cy HL cells in the right flank. Groups of mice (7-10/group) were untreated or received cAC10-vcMMAE (1 mg/kg, q4dx3, ip) alone, Vinblastine alone ([…] q4dx3), or combination treatment with cAC10-vcMMAE and vinblastine when tumor sizes averaged approximately 300 mm^3.
as §2, with “(6-8/group)” for “(5-10/group)”
as §1

[1] = tested on: relapsed or refractory HL; settings: cited from earlier work
[2] = FIG. 6, ~300 mm^3, cAC10-vcMMAE 1 mg/kg q4dx3 ip, Vinblastine 0/1 mg/kg q4dx3
[3] = FIG. 6, ~300 mm^3, cAC10-vcMMAE 1 mg/kg q4dx3 ip
[4] = ~100 mm^3, cAC10-vcMMAE 1 mg/kg q4dx3 ip, Gemcitabine 120 mg/kg q4dx3 ip
[5] = ~300 mm^3, cAC10-vcMMAE 1 mg/kg q4dx3 ip, Gemcitabine 120 mg/kg q4dx3 ip
[6] = FIG. 4A, first experiment, ~100 mm^3, cAC10-vcMMAE 1 mg/kg q4dx3 ip, Vinorelbine 4 mg/kg q5dx3
[7] = FIG. 4B, second experiment, ~100 mm^3, cAC10-vcMMAE 1 mg/kg q4dx3 ip, Vinorelbine 4 mg/kg q5dx3
[8] = FIG. 5A, first experiment, ~100 mm^3, cAC10-vcMMAE 1 mg/kg q4dx3 ip, Doxorubicin 3 mg/kg q4dx3
[9] = FIG. 5B, second experiment, ~100 mm^3, cAC10-vcMMAE 1 mg/kg q4dx3 ip, Doxorubicin 1.5 mg/kg q4dx3
[10] = FIG. 7, second study, ~100 mm^3, cAC10-vcMMAE 1 mg/kg q4dx3 ip, Gemcitabine 120 mg/kg q4dx3 ip

Row | Compound | durable responses, animals/group (L540cy HL tumors; [2]) | Median TGD (FIG. 6) (days to triple) (L540cy HL tumors; [3]) [days] | Median TGD (FIG. 2A) (days to quadruple) (L540cy HL tumors; [4]) [days] | Median TGD (FIG. 2B) (days to triplicate) (L540cy HL tumors; [5]) [days] | Median TGD (FIG. 4A) (days to quadruple) (L540cy HL tumors; [6]) [days] | durable responses, animals/group (L540cy HL tumors; [6]) | Median TGD (FIG. 4B) (days to quadruple) (L540cy HL tumors; [7]) [days] | durable responses, animals/group (L540cy HL tumors; [7]) | Median TGD (FIG. 5A) (days to quadruple) (L540cy HL tumors; [8]) [days] | durable responses, animals/group (L540cy HL tumors; [8]) | Median TGD (FIG. 5B) (days to quadruple) (L540cy HL tumors; [9]) [days] | durable responses, animals/group (L540cy HL tumors; [9]) | Median TGD (FIG. 7) (days to quadruple) (L540cy HL tumors; [10]) [days] | durable responses, animals/group (L540cy HL tumors; [10]) | further results
1 | CC[C@]1(O)C[C@@H]2CN(CCc3c([nH]c4ccccc34)[C@@](C(=O)OC)(c3cc4c(cc3OC)N(C)[C@H]3[C@@](O)(C(=O)OC)[C@H](OC(C)=O)[C@]5(CC)C=CCN6CC[C@]43[C@@H]65)C2)C1 [Vinblastine, reference compound] | 0/10 | 30.93 | – | – | – | – | – | – | – | – | – | – | – | – | –
2 | cAC10-vcMMAE: antibody-drug conjugate: chimeric AC10 anti-CD30 antibody linked via MC-val-cit-PAB to monomethyl auristatin E | 1/8 | 45.9 | 34 | 39.5 | 64 | 1/6 | 78.8 | 4/10 | 64 | 1/6 | 78.8 | 4/10 | 78.01 | 1/7 | effect on tumors compared to control treatment (L540cy HL tumors; FIG. 1A, monotherapy, tumors eventually progressed): induced tumor regressions and significant tumor growth delays; Median TGD (FIG. 1A) (days to quadruple) (L540cy HL tumors; FIG. 1A, treatment started at tumor size ~100 mm^3, cAC10-vcMMAE 1 mg/kg q4dx3 ip, ABVD: Adriamycin 1 mg/kg q4dx3 iv, Bleomycin 7.5 u/kg q4dx3 ip, Vinblastine 0.015 mg/kg q4dx3 ip, Dacarbazine 20 mg/kg q3dx4 ip): 63 days; durable responses (durable tumor regressions; absence of palpable tumor), animals/group (L540cy HL tumors; FIG. 1A, ~100 mm^3, cAC10-vcMMAE 1 mg/kg q4dx3 ip, ABVD full dose): 4/9; Median TGD (FIG. 1B) (days to triple) (L540cy HL tumors; FIG. 1B, treatment started at ~300 mm^3, cAC10-vcMMAE 1 mg/kg q4dx3 ip, ABVD: Adriamycin 0.75 mg/kg q4dx3 iv, Bleomycin 6 u/kg q4dx3 ip, Vinblastine 0.01 mg/kg q4dx3 ip, Dacarbazine 15 mg/kg q3dx4 ip): 41 days; durable responses, animals/group (L540cy HL tumors; FIG. 1B, ~300 mm^3, cAC10-vcMMAE 1 mg/kg q4dx3 ip, ABVD dosages reduced by 25%): 2/10; durable responses, animals/group (L540cy HL tumors; FIG. 3A, first experiment, ~100 mm^3, cAC10-vcMMAE 1 mg/kg q4dx3 ip, GVD): 4/9; Median TGD (FIG. 3A) (days to quadruple) (L540cy HL tumors; FIG. 3A, first experiment, ~100 mm^3, cAC10-vcMMAE 1 mg/kg q4dx3 ip, GVD: gemcitabine 60 mg/kg q4dx3 ip, vinorelbine 2 mg/kg q5dx3 ip, doxorubicin 1.5 mg/kg q4dx3 iv): 84.6 days; durable responses, animals/group (L540cy HL tumors; FIG. 3B, second experiment, ~100 mm^3, cAC10-vcMMAE 1 mg/kg q4dx3 ip, GVD): 0/7; Median TGD (FIG. 3B) (days to quadruple) (L540cy HL tumors; FIG. 3B, second experiment, ~100 mm^3, cAC10-vcMMAE 1 mg/kg q4dx3 ip, GVD: gemcitabine 60 mg/kg q4dx3 ip, vinorelbine 2 mg/kg q5dx3 ip, doxorubicin 1.5 mg/kg q4dx3 iv): 54.7 days
3 | CCC1=C[C@@H]2CN(C1)Cc1c([nH]c3ccccc13)[C@@](C(=O)OC)(c1cc3c(cc1OC)N(C)[C@H]1[C@@](O)(C(=O)OC)[C@H](OC(C)=O)[C@]4(CC)C=CCN5CC[C@]31[C@@H]54)C2 [Vinorelbine, reference compound] | – | – | – | – | 28 | 0/6 | 34.4 | 0/9 | – | – | – | – | – | – | –
4 | COc1cccc2c1C(=O)c1c(O)c3c(c(O)c1C2=O)C[C@@](O)(C(=O)CO)C[C@@H]3O[C@H]1C[C@H](N)[C@H](O)[C@H](C)O1 [Doxorubicin, reference compound] | – | – | – | – | – | – | – | – | 32 | 0/3 | 27.2 | 0/9 | – | – | –
5 | Nc1ccn([C@@H]2O[C@H](CO)[C@@H](O)C2(F)F)c(=O)n1 [Gemcitabine, 4-amino-1-[(2R,4R,5R)-3,3-difluoro-4-hydroxy-5-(hydroxymethyl)oxolan-2-yl]pyrimidin-2-one, reference compound] | – | – | 5 | 15.5 | – | – | – | – | – | – | – | – | 42 | 1/6 | durable responses, animals/group (L540cy HL tumors; FIG. 8, at day 51, experiment not yet complete, ~100 mm^3, cAC10-mcMMAF 1 mg/kg q4dx3 ip, Gemcitabine 120 mg/kg q4dx3 ip): 0/10; response rates ([1]; relapsed/refractory setting, majority of patients with prior autologous or allogeneic transplant, Venkatesh et al. 2004): 22%; response rates ([1]; transplant naive setting, relapsed or refractory HL patients, Santoro et al. 2000): 39%
